Calls of active or inactive are those of the source.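 The calls were made as follows: active = compounds giving half or more protection of infected cells from virus-caused growth loss, again on retest; inactive = the rest.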
System: CEM cells HIV-1 protection, formazan growth assay
Assay: NCI AIDS Antiviral Assay
Details: for IC50: measured here: growth of uninfected CEM cells
How it was run: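 CEM (human) cells, HIV-1 infected vs uninfected, 5-point dosing, formazan growth read-out. Retest threshold 50% protection.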

SMILES	EC50 [µM]	IC50 [µM]	outcome
CN(C)CCNC(=O)c1cc([N+](=O)[O-])cc2c1Oc1ccccc1O2	> 200	10.5	
CCOC(=O)c1ncn2c1[nH]c(=O)c1ccccc12	> 7.41	> 7.41	
Cc1cc(C)nc(NS(=O)(=O)c2ccc(NC(=O)c3cccc4c(Nc5ccc(S(=O)(=O)Nc6nc(C)cc(C)n6)cc5)c5ccccc5nc34)cc2)n1	> 33.9	30.2	
CCOP(=O)(CCn1cnc2c(N)ncnc21)OCC	178	437	
CC1(C)C2CCC(N)(C2)C1O (stereo unspecified)	> 200	> 200	
CCc1cc2c(oc3cc4ccccc4cc32)c(=O)[nH]1	> 200	> 200	
Cc1cnc2c(ccc3c(C)c(C)cnc32)c1C.Cc1cnc2c(ccc3c(C)c(C)cnc32)c1C.O=C1OC(C(O)C[O-])C(O)=C1O.[Cu+]	> 25.1	0.912	
CNc1ccccc1S(=O)(=O)c1ccccc1[N+](=O)[O-]	3.55	47.9	
CC1OC(OC2C(O[C@H]3CC[C@@]4(C)[C@@H](CC[C@@H]5[C@@H]4CC[C@]4(C)[C@@H]6[C@H](C[C@@H]54)O[C@]4(CC[C@@H](C)CO4)[C@H]6C)C3)OC(CO)C(OC3OC(CO)C(O)C(OC4OCC(O)C(O)C4O)C3OC3OCC(O)C(O)C3O)C2O)C(O)C(O)C1O (stereo partly specified)	> 2	0.832	
O=C1C=C(NC(c2ccccc2)c2nc3ccccc3[nH]2)C(c2ccccc2)N1c1ccccc1 (stereo unspecified)			inactive
CCOC(=O)CN1C(=O)c2c(c(C)n(-c3ccccc3)c2C)C1=O	> 200	> 200	
CC1(C)OC2CN(C(=O)OCc3ccccc3)C(CO)C2O1 (stereo unspecified)			inactive
O=C(N/C(=C\c1ccc2c(c1)OCO2)c1nc2ccccc2[nH]1)c1ccccc1	> 26.3	> 26.3	
CCOC(=O)/C=C1/Oc2ccccc2C1(C)O (stereo unspecified)	> 42.7	> 42.7	
CC1(C)CC(=O)C2=C(C1)NC(=S)C(C#N)C2c1ccccc1 (stereo unspecified)	> 85.1	32.4	
CC(=O)OC1CC2(C)OC(Cc3ccccc32)O1 (stereo unspecified)	> 200	> 200	
COC(=O)CC(NC(=O)OCc1ccccc1)C(C(=O)OCc1ccccc1)C(C)(OC)OC (stereo unspecified)	> 50.1	20.4	
CSc1nnc(SCc2nn3c(=O)cc(C)nc3s2)s1	> 200	> 200	
Cc1ccc2c(c1)S(=O)(=O)N(C)C(c1ccccc1)=C2	> 18.2	> 18.2	
CNC(C)C#N (stereo unspecified)			inactive
CCOC(=O)NC(=O)c1cn(CCCOC(=O)NCCCCCCNC(=O)OCCCn2c(=O)c(C(=O)NC(=O)OCC)cn(C)c2=O)c(=O)n(C)c1=O	> 33.9	> 33.9	
COc1ccc(OC)c(/C=C(/C#N)c2ccccc2)c1	> 10.2	> 10.2	

SMILES	EC50 [µM]	IC50 [µM]	outcome
COC(=O)C1=NN2c3ccccc3C(=O)OCCC2C1 (stereo unspecified)	> 200	> 200	
CC(=O)N1C(=O)C(C)(C2=CC(=O)c3ccccc3C2=O)c2ccc(Br)cc21 (stereo unspecified)	> 200	2.29	
O=C1CC2CCC(C1)S2=O (stereo unspecified)	> 200	> 200	
O=C1C2C3CCC(C3)C2C(=O)C2C3CCC(C3)C12 (stereo unspecified)	> 200	186	
C=CCC1[C@@H](C(C)(C)C(C(C)=O)C(=O)C(=O)OC)OC(C(C)(C)C)N1C(=O)OC (stereo partly specified)	> 63.1	> 63.1	
CCOC(=O)C(/C(=N/NC(=O)OC)C(=O)Nc1ccc(C(C)=O)cc1)c1cnc2ccccc2n1 (stereo unspecified)	> 39.8	> 39.8	
CCCCCCCSc1ccc(/C=C(\C#N)c2ccc(OCCN(CC)CC)cc2)cc1	> 100	1.86	
OCC1OC(n2ccc3cnccc32)CC1O (stereo unspecified)			inactive
O=C1/C(=C/c2ccccc2)NC(=S)N1CN1CCOCC1	> 200	72.4	
NC(=O)C1=NOC(C(N)=O)C1C1OC(CO)C(O)C1O (stereo unspecified)	> 200	> 200	
NCC(SSC(CN)C(=O)O)C(=O)O (stereo unspecified)	> 200	> 200	
C/C=C/CC1(CC)Oc2cccnc2-n2cccc2C1=O (stereo unspecified)	> 200	> 100	
C/C(=N/NC(=S)Nc1ccccc1Cl)c1cccc(/C(C)=N\NC(=S)Nc2ccccc2Cl)n1	> 200	87.1	
O=C1/C(=C/c2ccc(Br)cc2)CCC/C1=C\c1ccc(Br)cc1	> 6.31	> 6.31	
CC1(C)[C@H](CO)C(CO)[C@@H]1n1cnc2c(N)ncnc21 (stereo partly specified)	> 912	> 912	
COC(=O)Nc1cn2cc(C(=O)c3cccs3)ccc2n1	> 9.12	0.0331	
CC1NC(=O)c2c(-c3ccccc3)nn(-c3ccccc3)c2NC1=O (stereo unspecified)	> 200	> 200	
COc1ccc(C2c3cc4c(cc3C(O)C3CCC(=O)N23)OCO4)cc1 (stereo unspecified)	> 200	> 200	
Cc1ccc(NC(=O)C(=O)Cc2cc[n+]([O-])cc2)cc1	> 47.9	> 47.9	
Cc1cc2c(CC(=O)O)[nH]nc2c(C(=O)O)c1C	> 1000	> 1000	
Cc1ccc([N+](=O)[O-])c2c(NCCNC(=O)Cn3ccnc3[N+](=O)[O-])ccnc12	> 100	79.4	
Cc1ccc(C)c(N2C(=O)C(=O)C(c3nc4ccccc4s3)/C(=N/N)C2=O)c1 (stereo unspecified)	> 50.1	> 50.1	

SMILES	EC50 [µM]	IC50 [µM]	outcome
CCCC(=O)NC1CCc2cc(OC)c(OC)c(OC)c2-c2ccc(OC)c(=O)cc21 (stereo unspecified)	> 2	0.0126	
CC(=O)NNc1nc(C)c(C(=O)NNC(=O)C(=O)Nc2ccc(Cl)cc2Cl)s1			inactive
CC1OC=CC(=O)C1O (stereo unspecified)			inactive
CN1CCN(C)P1c1ccccc1	> 1290	> 1290	
CCCCCCCCCCCCCCCC=C(c1cc(Cl)c(OC)c(C(=O)OC)c1)c1cc(Cl)c(OC)c(C(=O)OC)c1	> 6.61	> 6.61	
[O-][n+]1c2ccccc2[n+]([O-])c2c3ccccc3[nH]c21	> 20.9	> 20.9	
CC1(O)CC(=O)c2c(cc3ccc(-c4c5c(c(O)c6c(O)cccc46)C(=O)CC(C)(O)C5)c(O)c3c2O)C1 (stereo unspecified)	> 200	0.389	
Cn1c(=O)sc2cc(C(=S)N3CCCCC3)ccc21	> 200	107	
NC(N)=NCCS(=O)(=O)O	> 200	> 200	
CCCN(CCC)C(=S)S	> 200	> 200	
Oc1ccc(Cl)cc1C(c1cc(Cl)ccc1O)C(Cl)(Cl)Cl	9.77	16.6	
CN(C)CCCCN1c2ccccc2Sc2cc(N=[N+]=[N-])ccc21	> 200	2.45	
COC(=O)N/N=C/c1oc(-c2ccccc2)c(-c2ccccc2)c1[N+](=O)[O-]	> 61.7	> 61.7	
N#CC(C#N)=CN1C(=O)CNC1=S	> 200	> 200	
Cc1cc(=N)cc(C)n1O	> 1820	> 1820	
Cc1nnc2n1N=C(c1ccc(-c3ccc([N+](=O)[O-])cc3)o1)CS2	> 5.89	> 5.89	
C=CC[P@]1(=O)O[C@H](c2ccccc2)[C@H](C)N1C			inactive
CCC1(Br)C(=O)NC(=O)NC1=O	42.7	115	
CCNC(=S)NNC(=O)C12CC3CC(CC(C3)C1)C2	> 200	> 200	
O=C1CC2(CCC(O)(c3ccccc3)C(C(=O)c3ccccc3)C2)C(=O)c2ccccc2N1 (stereo unspecified)	> 200	> 200	
